Structures are written as SMILES.

What is called Ki is the dissociation constant of the complex between target and ligand, obtained from inhibition or displacement. Lower therefore signals tighter binding.

The experiment has as its target T1, Purine nucleoside phosphorylase (Homo sapiens, UniProt P00491).
T1 sequence (P00491 whole entry): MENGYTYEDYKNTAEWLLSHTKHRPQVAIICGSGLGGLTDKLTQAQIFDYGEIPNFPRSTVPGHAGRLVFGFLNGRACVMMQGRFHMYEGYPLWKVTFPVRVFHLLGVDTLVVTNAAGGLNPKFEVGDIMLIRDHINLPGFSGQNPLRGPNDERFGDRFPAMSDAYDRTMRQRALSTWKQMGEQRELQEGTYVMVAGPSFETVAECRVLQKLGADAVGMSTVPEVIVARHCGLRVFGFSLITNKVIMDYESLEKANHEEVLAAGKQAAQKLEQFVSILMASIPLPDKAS
The experiment can be described thus: Competitive Inhibition Assay. An excerpt: PNPase activity (guanosine to guanine and ribose 1-phosphate) was followed by measuring the decrease in absorbance at 268nm.
Compound `O=c1[nH]cnc2c(O)ccc(O)c12` [Substituted Quinazolin-4(3H)-one, 11] had an inhibitory constant (Ki) of 142 µM.
Then `Cc1cc(O)c2nc[nH]c(=O)c2c1` [Substituted Quinazolin-4(3H)-one, 12], with 618 µM; and `O=c1[nH]cnc2cccc(O)c12` [Substituted Quinazolin-4(3H)-one, 13], with 576 µM.
In the case of `O=c1[nH]cnc2c(O)cccc12` [Substituted Quinazolin-4(3H)-one, 14], the Ki was found to be 593 µM.
Then `Nc1ccc(O)c2c(=O)[nH]cnc12` [Substituted Quinazolin-4(3H)-one, 15], with 131 µM.
Then `Nc1cccc2nc[nH]c(=O)c12` [Substituted Quinazolin-4(3H)-one, 9], with 337 µM.

Source of the values: BindingDB's records for doi:10.1021/bi00098a028 (Arizona State University, 1991).
